According to US9107959B2, “Method for site-specific polyvalent display on polymers” (priority 2006, dated 2015):

Experiment: Cyclic voltammetry (electrochemical analyses)
Format: physicochemical
Settings: 0.5 mM in water, NaCl 50 mM
Description: Ethynylferrocene (1.05 mg, 5.0 μmol) was dissolved in 10 mL HPLC grade water. NaCl (29.22 mg, 0.5 mmol) was added to the solution as a supporting electrolyte. Similarly, solutions of 10 mL water, 6.3 mg (5.0 μmol) peptoid 13 or 4.8 mg (5.0 μmol) peptoid 14 and 29.22 mg (0.5 mmol) NaCl were prepared. The following techniques were performed identically on 0.5 mM ethynylferrocene (50 mM NaCl), 0.5 mM 13 (50 mM NaCl) or 0.5 mM 14 (50 mM NaCl). Approximately 4 mL of solution was transferred to an electrochemical cell and subjected to cyclic voltammetry (CV) experiments. Cyclic voltammetry was conducted using a CH Instruments 600A Electrochemical Analyzer and CV curves were generated using software developed by CH Instruments. Current (μA) versus Potential (V) was measured across a freshly polished CHI104 3 mm diameter glassy carbon disk working electrode (CH Instruments) with a Ag/AgCl (3 M KCl) reference electrode (CH Instruments) and a Pt wire […] (scan rate=9.0 mV s^−1).
To test the effect of triazole conjugation on ferrocene redox properties, compound 13 was purified to >96% as determined by RP-HPLC and the electrochemical behavior of ethynylferrocene and 13 were compared using cyclic voltammetry (CV). Additionally, the influence of the estradiol group on the redox potential of the neighboring ferrocene moiety was evaluated by comparing the electrochemical characteristics of 13 with its azido-functionalized precursor 14. CV experiments were carried out at room temperature using previously described methods (Casas-Solvas et al., Org. Lett. 2004, 6, 3687). CV was performed on solutions of ethynylferrocene (0.5 mM), 13 (0.5 mM) or 14 (0.5 mM) prepared in water with NaCl (50 mM) as a supporting electrolyte, using a Ag/AgCl (KCl 3 M) reference electrode, a freshly polished glassy carbon working electrode, and a Pt wire counter electrode with a scan rate of 9.0 mV s^−1. The values of the formal redox potential)(E^o) and the half-peak potential (Ep/2) of ethynylferrocene, 13 and 14 are shown in Table 1. […]

[1] = glassy carbon working electrode, Ag/AgCl reference, scan rate 9.0 mV s^-1

Ethynylferrocene
Redox behaviour in cyclic voltammograms (ferrocene/ferrocenium) (FIG. 5): reversible redox couples
Ep/2 (half-peak potential) [1]: 0.525 V
E° (formal redox potential) [1]: 0.512 V
